# Measured values published in ChEMBL document CHEMBL5230110, “FabI (enoyl acyl carrier protein reductase) - A potential broad spectrum therapeutic target and its inhibitors” (Eur J Med Chem, 2020).
# pIC50: −log10 of the molar value.
# Target: Enoyl-[acyl-carrier-protein] reductase [NADH] (Mycobacterium tuberculosis, UniProt P9WGR1, S94A)
compound,measurement,value
Oc1cc2ccc1Oc1ccc(cc1)CCc1ccc(c(O)c1)Oc1ccc(cc1)CC2,pIC50,5.33
